Experimental findings from PubChem BioAssay (NCI) are described below.

Common to all, as to test: NCI tumour cell line growth inhibition, 48 h
Assay [1] deals with DU-145 prostate.
The test system of assay [2] is T-47D breast.
In assay [3] the test system is MCF7 breast.
The test system of assay [4] is CCRF-CEM leukemia.
In assay [5] the test system is ACHN renal.
Assay [6] has as its system MDA-N.
Assay [7] relates to 786-0 renal.
Assay [8] concerns HT29 colon.
For assay [9], the system named is OVCAR-3 ovarian.
Assay [10] has as its system UACC-257 melanoma.
Assay [11] relates to A498 renal.
Assay [12] relates to HS 578T breast.
Assay [13] concerns SK-MEL-2 melanoma.
Assay [14] concerns HCT-15 colon.
For assay [15], the system named is LOX IMVI melanoma.
Assay [16] concerns MDA-MB-231 breast.
In assay [17] the test system is TK-10 renal.
Assay [18] concerns SR leukemia.
The subject of assay [19] is NCI-H522 lung.
Assay [20] deals with RXF 393 renal.

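A five-concentration, 48-hour dose response in 96-well plates underlies each endpoint, interpolated linearly between surrounding concentrations. Definition used: TGI = concentration required for complete inhibition of growth.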 Where a SMILES comes first, the peptide text is derived from it. The star is where a group is joined. Cbz = O=C(OCc1ccccc1)*

With `CC1CN=C(N(C(=O)Nc2ccccc2)c2ccc(Cl)c(Cl)c2)S1` (stereo not drawn), the TGI in [1] is greater than 100 µM; in [2] it was greater than 100 µM; in assay [3], greater than 100 µM; in [4] it was greater than 10 µM; in assay [5], greater than 100 µM; in assay [6] it was greater than 10 µM. In addition, the TGI in assay [7] is 93.8 µM; in assay [8] it was 78 µM; in assay [9], greater than 10 µM; in [10], greater than 100 µM; in [11], 64.9 µM; in [12], greater than 100 µM. In addition, the TGI was 40.4 µM in assay [13]; greater than 100 µM in assay [14]; 93.3 µM in [15]; greater than 100 µM in [16]; greater than 100 µM in assay [17]; greater than 100 µM in assay [18].
For the compound `CCOC(=O)c1sc2c(c1OC(=O)c1ccc(OC)cc1)c(=O)n(-c1ccccc1)c(=S)n2-c1ccccc1`, the TGI in assay [1] was greater than 100 µM; in assay [2], greater than 100 µM; in [3], greater than 100 µM; in assay [19] it was 23 µM; in assay [4] it was greater than 100 µM; in assay [20], greater than 100 µM. Besides, the TGI in [5], in assay [6], in [7], in assay [8], in assay [9] and in assay [10] was greater than 100 µM throughout. Further, the TGI in [11] is 41.4 µM; in assay [12], greater than 100 µM; in assay [14] it was greater than 100 µM; in assay [15], greater than 100 µM; in [16], 54.2 µM; in [17] it was greater than 100 µM. Besides, in assay [18], the TGI is 93.2 µM.
On to `CCC(=O)O[C@H]1CC[C@H]2[C@@H]3CCC4=C/C(=N/OC(=O)c5cccc6cc7ccccc7nc56)CC[C@]4(C)[C@H]3CC[C@]12C`, for which the TGI in [1] was greater than 100 µM; in assay [2], 67.6 µM; in assay [3] it was greater than 100 µM; in [19] it was greater than 100 µM; in assay [4], greater than 100 µM; in [20], greater than 100 µM. Also, the TGI in [5], in assay [6], in assay [7], in [8], in [9] and in [10] was greater than 100 µM in each case. The TGI in [11], in assay [12], in [13], in assay [14], in assay [15] and in assay [16] was greater than 100 µM in each case. This compound came in with a TGI in assay [18] greater than 100 µM.
Regarding `O=C(NNC(=O)c1ccccc1O)c1cccc(Br)c1`, the TGI in assay [1] was greater than 100 µM; in [2] it was greater than 100 µM; in assay [3] it was greater than 60.3 µM; in assay [19], 83.3 µM; in assay [20], greater than 100 µM; in assay [5] it was greater than 100 µM. Besides, the TGI in assay [6], in [7], in [8], in assay [9], in [10] and in [11] was greater than 100 µM in each case. Also, the TGI is greater than 100 µM in assay [12]; greater than 100 µM in [13]; greater than 100 µM in [14]; greater than 100 µM in assay [15]; greater than 77.7 µM in assay [16]; greater than 100 µM in [17]. This compound also showed a TGI in [18] greater than 100 µM.
Regarding `CC(=O)NC1=N/C(=C\c2ccc(Cl)cc2)C(=O)N1/C=C1\C(=O)Oc2ccccc2C1=O`, the TGI in assay [1], in assay [2], in [3], in assay [19], in assay [4] and in assay [20] was greater than 100 µM each time. Besides, the TGI in assay [5], in [6], in assay [7], in assay [8], in [9] and in assay [10] was greater than 100 µM throughout. Also, the TGI in assay [11] was 57.8 µM; in assay [12] it was 6.22 µM; in assay [13] it was greater than 100 µM; in assay [14] it was greater than 100 µM; in assay [15] it was greater than 100 µM; in assay [16] it was greater than 100 µM. For the same compound, the TGI in assay [18] is greater than 100 µM.
With `CCOC(=O)/C=C(/C(=O)OCC)n1cnc2c(=O)[nH]c(NC(C)=O)nc21`, the TGI in [1], in assay [2], in assay [3], in [19], in assay [4] and in assay [5] was greater than 100 µM in each case. Besides, the TGI in assay [6], in assay [7], in assay [8], in assay [9], in assay [10] and in assay [11] was greater than 100 µM throughout. For the same compound, the TGI in assay [12], in assay [13], in assay [14], in assay [15], in assay [16] and in assay [17] was greater than 100 µM in each case. Besides, in assay [18], the TGI is greater than 100 µM.
As for `COc1ccc(N=NC(=O)NC(CC(C)C)C(=O)NC(C)C(=O)O)cc1` (stereo not drawn), the TGI is greater than 100 µM in [1]; greater than 45.3 µM in assay [2]; greater than 100 µM in assay [3]; greater than 100 µM in assay [19]; greater than 100 µM in [4]; greater than 100 µM in assay [20]. In addition, the TGI in assay [5], in assay [6], in assay [7], in [8], in [9] and in assay [10] was greater than 100 µM throughout. Besides, the TGI in [11], in assay [12], in [13], in assay [14], in [16] and in assay [17] was greater than 100 µM in each case. The TGI in [18] was greater than 100 µM.
Turning to `Cn1c2ccccc2c(=O)c2cccc(C(=O)NC(CS)C(=O)O)c21` (stereo not drawn), the TGI in assay [1], in assay [2], in [3], in assay [5], in [6] and in assay [7] was greater than 100 µM in each case. Also, the TGI in [8], in assay [9], in [10], in assay [11], in assay [12] and in [13] was greater than 100 µM in each case. Besides, the TGI in [14], in assay [15], in assay [16], in assay [17] and in assay [18] was greater than 100 µM in each case.
`CC(NC(=O)C(NC(=O)OCc1ccccc1)C(C)C)C(=O)NCC(=O)O` (stereo not drawn) (Cbz-Val-Ala-Gly-OH; configuration not given here): the TGI in assay [1], in assay [2], in [3], in assay [19], in assay [20] and in [5] was greater than 100 µM in each case. The TGI in assay [6], in [7], in assay [8], in [9], in assay [10] and in assay [12] was greater than 100 µM in each case. The TGI in assay [13], in assay [14], in assay [16], in assay [17] and in assay [18] was greater than 100 µM each time.
For the compound `c1ccc2c(c1)SCCC2NC1=NCCO1` (stereo not drawn), the TGI in [1], in assay [2], in assay [3], in assay [19], in assay [4] and in [20] was greater than 100 µM throughout. Besides, the TGI in assay [5], in assay [6], in [7], in assay [8], in assay [9] and in assay [11] was greater than 100 µM throughout. In addition, the TGI in assay [12], in [13], in [14], in [15], in [16] and in assay [17] was greater than 100 µM throughout. In addition, the TGI in assay [18] is greater than 100 µM.
For `COC(=O)NC(C(F)(F)F)(C(F)(F)F)P1(=O)OCCCO1`, the TGI is greater than 100 µM in [1]; 84.3 µM in assay [2]; greater than 100 µM in assay [3]; 34 µM in assay [19]; greater than 100 µM in assay [4]; 15 µM in assay [20]. For the same compound, the TGI in assay [5] is 54.2 µM; in [6], 70.3 µM; in [7], greater than 100 µM; in assay [8] it was 63.9 µM; in assay [9], greater than 100 µM; in assay [11] it was 38 µM. Besides, the TGI in [12] was greater than 100 µM; in [14] it was 59 µM; in [15], 58.4 µM; in [16] it was 62.9 µM; in assay [17], 97.6 µM; in assay [18], 69.5 µM.
On to `CCOC(=O)c1nc2cc(F)c(N3CCOCC3)cc2[nH]c1=O`, for which the TGI in assay [1], in [2], in assay [3], in [19], in assay [4] and in assay [20] was greater than 100 µM in each case. Further, the TGI in assay [5], in assay [6], in assay [7], in assay [8], in assay [9] and in [10] was greater than 100 µM each time. In addition, the TGI in assay [11], in assay [12], in [13], in assay [14], in [16] and in assay [17] was greater than 100 µM each time. Moreover, the TGI in assay [18] is greater than 100 µM.
`CC1=C(/C=C/C(C)=C/C=C/C(C)=C/C(=O)OC2CC(n3cc(F)c(=O)[nH]c3=O)OC2CO)C(C)(C)CCC1` (stereo not drawn): the TGI in assay [1] was determined as 13.4 µM; in assay [2], 21.2 µM; in assay [3], 19.5 µM; in [19] it was 11.4 µM; in [4] it was 31.8 µM; in [20] it was 24 µM. Further, the TGI in assay [5] turned out to be 11.6 µM; in assay [6] it was 23.2 µM; in [7], 16.7 µM; in [8] it was 21.5 µM; in [9], 22.5 µM; in [10], 29.6 µM. The TGI in assay [12] is greater than 56 µM; in [13], 55.5 µM; in [14] it was 27.6 µM; in assay [15], 20.6 µM; in assay [16], 29.4 µM; in [17], 25.8 µM. The compound further returned a TGI in assay [18] greater than 47.2 µM.
As for `COC(=O)C1=C(O)c2ccc(Cl)cc2S(=O)(=O)N1C`, the TGI in [1], in assay [2], in [3], in assay [19], in assay [4] and in assay [20] was greater than 100 µM throughout. For the same compound, the TGI in assay [5], in assay [6], in assay [7], in assay [8], in [10] and in assay [11] was greater than 100 µM throughout. For the same compound, the TGI in [12], in [13], in [14], in [15], in assay [16] and in [17] was greater than 100 µM each time. In addition, the TGI in [18] is greater than 100 µM.
Regarding `O=c1oc2c/c(=C\c3ccc([N+](=O)[O-])cc3)c(=O)c3cccc1c3-2`, the TGI was greater than 100 µM in assay [1]; greater than 100 µM in assay [2]; greater than 100 µM in assay [3]; 90.5 µM in assay [19]; greater than 100 µM in assay [4]; greater than 100 µM in assay [5]. For the same compound, the TGI in [6], in assay [7], in assay [8], in [9], in assay [10] and in [12] was greater than 100 µM in each case. Besides, the TGI was greater than 100 µM in [13]; greater than 100 µM in assay [14]; greater than 100 µM in [15]; greater than 100 µM in assay [16]; 72.1 µM in assay [17]; greater than 100 µM in assay [18].
